Results as given in ChEMBL document CHEMBL1201862, “PubChem BioAssay data set” (2004).
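The compound was tested at five concentrations on cells cultured in 96-well plates, with a 48-hour exposure period. At the GI50, growth is halved.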 Calls of active or inactive are those of the source. No stated cut-off is given here; in the data, active = GI50 up to about 1.1 µM and inactive = higher.

Tests used:
Assay in all cases: NCI-60 cell line screen, 48 h
[1] = system: NCI-H226
[2] = system: NCI-H522
[3] = system: PC-3
[4] = system: HCC 2998
[5] = system: SF-539
[6] = system: K562
[7] = system: CAKI-1
[8] = system: M14
[9] = system: UO-31
[10] = system: SK-MEL-2
[11] = system: NCI-H460
[12] = system: Malme-3M
[13] = system: DU-145
[14] = system: OVCAR-4
[15] = system: UACC-62
[16] = system: A498
[17] = system: SK-OV-3
[18] = system: HCT-116
[19] = system: Hs-578T
[20] = system: NCI/ADR-RES
[21] = system: MCF7
[22] = system: TK-10
[23] = system: HL-60
[24] = system: OVCAR-5
[25] = system: SK-MEL-28
[26] = system: EKVX
[27] = system: SF-295
[28] = system: SW-620
[29] = system: IGROV-1
[30] = system: SN12C
[31] = system: OVCAR-3
[32] = system: BT-549
[33] = system: U-251
[34] = system: NCI-H23
[35] = system: MOLT-4
[36] = system: RXF 393
[37] = system: UACC-257
[38] = system: KM12
[39] = system: SK-MEL-5
[40] = system: HOP-62
[41] = system: RPMI-8226
[42] = system: OVCAR-8
[43] = system: COLO 205
[44] = system: LOX IMVI
[45] = system: MDA-N
[46] = system: 786-0
[47] = system: SF-268
[48] = system: T47D
[49] = system: HT-29
[50] = system: SNB-19
[51] = system: MDA-MB-435
[52] = system: CCRF-CEM
[53] = system: ACHN
[54] = system: HCT-15
[55] = system: A549
[56] = system: SNB-75
[57] = system: HOP-92
[58] = system: MDA-MB-231
[59] = system: SR

CN(C)C=C1C(=O)c2c(Br)sc(Br)c2C1=O
GI50 [1]: 16.3 µM (inactive) | GI50 [2]: 15.9 µM (inactive) | GI50 [3]: 20.7 µM (inactive) | GI50 [4]: 13 µM (inactive) | GI50 [5]: 18.2 µM (inactive) | GI50 [6]: 22.1 µM (inactive) | GI50 [7]: 18.1 µM (inactive) | GI50 [8]: 18.7 µM (inactive) | GI50 [9]: 29.6 µM (inactive) | GI50 [10]: 14.1 µM (inactive) | GI50 [11]: 20.6 µM (inactive) | GI50 [12]: 14.3 µM (inactive) | GI50 [13]: 28.5 µM (inactive) | GI50 [14]: 13.8 µM (inactive) | GI50 [15]: 17.1 µM (inactive) | GI50 [16]: 21.3 µM (inactive) | GI50 [17]: 22 µM (inactive) | GI50 [18]: 21.8 µM (inactive) | GI50 [19]: 15.6 µM (inactive) | GI50 [20]: 26.1 µM (inactive) | GI50 [21]: 33.7 µM (inactive) | GI50 [22]: 28.4 µM (inactive) | GI50 [23]: 16.3 µM (inactive) | GI50 [24]: 28.1 µM (inactive) | GI50 [25]: 15.3 µM (inactive) | GI50 [26]: 18.9 µM (inactive) | GI50 [27]: 19.7 µM (inactive) | GI50 [28]: 28.3 µM (inactive) | GI50 [29]: 18.7 µM (inactive) | GI50 [30]: 45.6 µM (inactive) | GI50 [31]: 19.1 µM (inactive) | GI50 [32]: 20.8 µM (inactive) | GI50 [33]: 19.1 µM (inactive) | GI50 [34]: 15.1 µM (inactive) | GI50 [35]: 32.7 µM (inactive) | GI50 [36]: 17.5 µM (inactive) | GI50 [37]: 16.3 µM (inactive) | GI50 [38]: 30.1 µM (inactive) | GI50 [39]: 16.3 µM (inactive) | GI50 [40]: 27.9 µM (inactive) | GI50 [41]: 29.8 µM (inactive) | GI50 [42]: 22.9 µM (inactive) | GI50 [43]: 18.5 µM (inactive) | GI50 [44]: 20 µM (inactive) | GI50 [45]: 19.7 µM (inactive) | GI50 [46]: 33.9 µM (inactive) | GI50 [47]: 15.7 µM (inactive) | GI50 [48]: 29.9 µM (inactive) | GI50 [49]: 28.8 µM (inactive) | GI50 [50]: 28.7 µM (inactive) | GI50 [51]: 14.1 µM (inactive) | GI50 [52]: 30.4 µM (inactive) | GI50 [53]: 29.6 µM (inactive) | GI50 [54]: 18.1 µM | GI50 [55]: 36.4 µM (inactive) | GI50 [56]: 17 µM (inactive) | GI50 [57]: 16.6 µM (inactive)

CCOC(=O)c1ncn(CCc2ccc(Cl)cc2)c1C
GI50 [1]: > 100 µM (inactive) | GI50 [2]: 34.4 µM (inactive) | GI50 [3]: > 100 µM (inactive) | GI50 [4]: > 100 µM (inactive) | GI50 [5]: > 100 µM (inactive) | GI50 [6]: > 100 µM (inactive) | GI50 [7]: 80.2 µM (inactive) | GI50 [8]: 26.3 µM (inactive) | GI50 [9]: 34.5 µM (inactive) | GI50 [10]: > 100 µM (inactive) | GI50 [11]: > 100 µM (inactive) | GI50 [12]: > 100 µM (inactive) | GI50 [13]: > 100 µM (inactive) | GI50 [14]: 56.6 µM (inactive) | GI50 [15]: 42.4 µM (inactive) | GI50 [16]: > 100 µM (inactive) | GI50 [18]: > 100 µM (inactive) | GI50 [19]: > 100 µM (inactive) | GI50 [20]: 70.8 µM (inactive) | GI50 [21]: > 100 µM (inactive) | GI50 [22]: > 100 µM (inactive) | GI50 [23]: > 100 µM (inactive) | GI50 [24]: > 100 µM (inactive) | GI50 [25]: > 100 µM (inactive) | GI50 [26]: > 100 µM (inactive) | GI50 [27]: 70.8 µM (inactive) | GI50 [28]: > 100 µM (inactive) | GI50 [29]: > 100 µM (inactive) | GI50 [30]: > 100 µM (inactive) | GI50 [31]: > 100 µM (inactive) | GI50 [32]: > 100 µM (inactive) | GI50 [33]: > 100 µM (inactive) | GI50 [34]: > 100 µM (inactive) | GI50 [58]: > 100 µM (inactive) | GI50 [35]: > 100 µM (inactive) | GI50 [36]: > 100 µM (inactive) | GI50 [37]: > 100 µM (inactive) | GI50 [38]: > 100 µM (inactive) | GI50 [39]: 85.9 µM (inactive) | GI50 [40]: > 100 µM (inactive) | GI50 [41]: 62.7 µM (inactive) | GI50 [42]: > 100 µM (inactive) | GI50 [43]: > 100 µM (inactive) | GI50 [44]: > 100 µM (inactive) | GI50 [45]: 80.5 µM (inactive) | GI50 [46]: > 100 µM (inactive) | GI50 [47]: 92.9 µM (inactive) | GI50 [49]: > 100 µM (inactive) | GI50 [50]: > 100 µM (inactive) | GI50 [51]: > 100 µM (inactive) | GI50 [52]: > 100 µM (inactive) | GI50 [53]: > 100 µM (inactive) | GI50 [54]: > 100 µM | GI50 [55]: > 100 µM (inactive) | GI50 [59]: 68.2 µM (inactive) | GI50 [57]: > 100 µM (inactive)

COc1ccc(NC(S)=Nc2ccccc2)cc1
GI50 [1]: > 100 µM (inactive) | GI50 [2]: > 100 µM (inactive) | GI50 [3]: > 100 µM (inactive) | GI50 [4]: > 100 µM (inactive) | GI50 [5]: > 100 µM (inactive) | GI50 [6]: > 100 µM (inactive) | GI50 [7]: > 100 µM (inactive) | GI50 [8]: > 100 µM (inactive) | GI50 [9]: > 100 µM (inactive) | GI50 [10]: > 100 µM (inactive) | GI50 [11]: > 100 µM (inactive) | GI50 [12]: > 100 µM (inactive) | GI50 [13]: > 100 µM (inactive) | GI50 [14]: > 100 µM (inactive) | GI50 [15]: > 100 µM (inactive) | GI50 [16]: > 100 µM (inactive) | GI50 [17]: > 100 µM (inactive) | GI50 [18]: > 100 µM (inactive) | GI50 [19]: > 100 µM (inactive) | GI50 [20]: > 100 µM (inactive) | GI50 [21]: > 100 µM (inactive) | GI50 [22]: > 100 µM (inactive) | GI50 [23]: 24.2 µM (inactive) | GI50 [24]: > 100 µM (inactive) | GI50 [25]: > 100 µM (inactive) | GI50 [26]: 96.4 µM (inactive) | GI50 [27]: > 100 µM (inactive) | GI50 [28]: > 100 µM (inactive) | GI50 [29]: > 100 µM (inactive) | GI50 [30]: > 100 µM (inactive) | GI50 [31]: > 100 µM (inactive) | GI50 [32]: > 100 µM (inactive) | GI50 [33]: > 100 µM (inactive) | GI50 [34]: > 100 µM (inactive) | GI50 [58]: > 100 µM (inactive) | GI50 [36]: 98.2 µM (inactive) | GI50 [37]: 39.4 µM (inactive) | GI50 [39]: > 100 µM (inactive) | GI50 [40]: > 100 µM (inactive) | GI50 [41]: > 100 µM (inactive) | GI50 [42]: > 100 µM (inactive) | GI50 [43]: > 100 µM (inactive) | GI50 [44]: > 100 µM (inactive) | GI50 [45]: > 100 µM (inactive) | GI50 [46]: > 100 µM (inactive) | GI50 [47]: > 100 µM (inactive) | GI50 [49]: > 100 µM (inactive) | GI50 [50]: > 100 µM (inactive) | GI50 [51]: > 100 µM (inactive) | GI50 [53]: > 100 µM (inactive) | GI50 [54]: > 100 µM | GI50 [55]: > 100 µM (inactive) | GI50 [56]: > 100 µM (inactive) | GI50 [59]: > 100 µM (inactive) | GI50 [57]: > 100 µM (inactive)
